According to patent publication US5741788A, “Heterocyclic compounds and their preparation and use” (Novo Nordisk A/S, priority 1994, dated 1998):
Structures can show the parent of a compound that is named as a salt. Where two headings read alike, the source gives them in different places.

Assays:
[1] = target: muscarinic acetylcholine receptors; test: inhibition of specific binding of ^3 H-Oxotremorine-M (^3 H-Oxo) to rat cortex homogenate; parameters: species or system male Wistar rats; settings: 1.0 nM radioligand, 30 min at 25° C., pH 7.4
From the text: The pharmacological properties of the compounds of the invention can be illustrated by determining their capability to inhibit the specific binding of ^3 H-Oxotremorine-M (^3 H-Oxo). Birdsdall N. J. M., Hulme E. C., and Burgen A. S. V. (1980). "The Character of Muscarinic Receptors in Different Regions of the Rat Brain". Proc. Roy. Soc. London (Series B) 207,1.
^3 H-Oxo labels muscarinic receptor in the CNS (with a preference for agonist domains of the receptors). Three different sites are labelled by ^3 H-Oxo. […] Using the present experimental conditions only the high and medium affinity sites are determined.
The inhibitory effects of compounds on ^3 H-Oxo binding reflects the affinity for muscarinic acetylcholine receptors.
All preparations are performed at 0°-4° C. unless otherwise indicated. Fresh cortex (0.1-1 g) from male Wistar rats (150-250 g) is homogenized for 5-10 s in 10 ml 20 mM Hepes pH: 7.4, with an Ultra-Turrax homogenizer. The homogenizer is rinsed with 10 ml of buffer and the combined suspension centrifuged for 15 min. at 40,000×g. The pellet is washed three times with buffer. In each step the pellet is homogenized as before in 2×10 ml of buffer and centrifuged for 10 min. at 40,000×g.
The final pellet is homogenized in 20 mM Hepes pH: 7.4 (100 ml per g of original tissue) and used for binding assay. Aliquots of 0.5 ml is added 25 ul of test solution and 25 ul of ^3 H-Oxotremorine (1.0 nM, final concentration) mixed and incubated for 30 min. at 25° C. Non-specific binding is determined in triplicate using arecoline (1 ug/ml, final concentration) as the test substance. After incubation samples are added 5 ml of ice-cold buffer and poured directly onto Whatman GF/C glass fiber filters under suction and immediately washed 2 times with 5 ml of ice-cold buffer. The amount of radioactivity on the filters are determined by conventional liquid scintillation counting. Specific binding is total binding minus non specific binding.
Test substances are dissolved in 10 ml water (if necessary heated on a steam-bath for less than 5 min.) at a concentration of 2.2 mg/ml. 25-75% inhibition of specific binding must be obtained before calculation of IC50.
The test value will be given as IC50 (the concentration (nM) of the test substance which inhibits the specific binding of ^3 H-Oxo by 50%).
(§1) IC50 =(applied test substance concentration)×(Cx /Co -Cx)nM
(§2) where Co is specific binding in control assays and Cx is the specific binding in the test assay. (The calculations assume normal mass-action kinetics).

[2] = target: T1, M1-site (pirenzepine sensitive site) of muscarinic receptors (Rattus norvegicus, UniProt P08482); test: inhibition of ^3 H-PRZ (pirenzepine, [N-methyl-^3 H]) binding to rat cerebral cortex membranes; parameters: species or system male Wistar rats
T1 construct: Fresh cortex (0.1-1 g) from male Wistar rats (150-200 g) is homogenized; from tissue; host or cells: cerebral cortex of male Wistar rats
T1 sequence (P08482 1-460): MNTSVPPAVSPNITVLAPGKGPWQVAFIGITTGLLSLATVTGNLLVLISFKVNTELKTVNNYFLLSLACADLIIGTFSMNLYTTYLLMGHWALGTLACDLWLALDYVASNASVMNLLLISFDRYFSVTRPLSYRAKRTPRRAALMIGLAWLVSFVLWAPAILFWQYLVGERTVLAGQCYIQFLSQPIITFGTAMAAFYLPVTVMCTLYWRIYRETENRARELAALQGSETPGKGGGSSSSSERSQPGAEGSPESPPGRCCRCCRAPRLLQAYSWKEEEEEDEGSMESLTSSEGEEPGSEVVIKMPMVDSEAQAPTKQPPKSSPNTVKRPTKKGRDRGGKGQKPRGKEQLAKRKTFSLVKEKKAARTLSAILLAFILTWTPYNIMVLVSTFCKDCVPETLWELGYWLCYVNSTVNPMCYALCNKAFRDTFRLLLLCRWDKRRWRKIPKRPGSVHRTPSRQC
From the text: Furthermore the pharmacological properties of the compounds of the invention can also be illustrated by determining their capability to inhibit ^3 H-PRZ (pirenzepine, [N-methyl-^3 H]) binding to rat cerebral cortex membranes. Pirenzepine binds selectively to subtype of muscarinic receptors. Historically the type is named the M1 -site, whereas pirenzepine sensitive site would be more appropriate. Although selective for M1 -sites pirenzepine also interact with M2 -sites.
All preparations are performed at 0°-4° C. unless otherwise indicated. Fresh cortex (0.1-1 g) from male Wistar rats (150-200 g) is homogenized for 5-10 s. in 10 ml 20 mM Hepes pH: 7.4, with an Ultra-Turraxhomogenizer. The homogenizer is rinzed with 2×10 ml of buffer and the combined suspension centrifuged for 15 min at 40,000×g. The pellet is washed three times with buffer. In each step the pellet is homogenized as before in 3×10 ml of buffer and centrifuged for 10 min at 40,000×g.
The final pellet is homogenized in 20 mM Hepes pH: 7.4 (100 ml per g of original tissue) and used for binding assay. Aliquots of 0.5 ml is added 20 μl of test solution and 25 μl of ^3 H-Pirenzepine (1.0 nM, final conc.), mixed and incubated for 60 min at 20° C. Non-specificbinding is determined in triplicate using atropine (1 μg/ml, final conc.) as the test substance. After incubation samples are added 5 ml of ice-cold buffer and poured directly onto Whatman GF/C glass fiber filters inder suction and immediately washed 2 times with 5 ml of ice-cold buffer. The amount of radioactivity on the filters are determined by conventional liquid scintillation counting. Specific binding is total binding minus non-specific binding.
Test substances are dissolved in 10 ml water, at a concentration of 0.22 mg/ml. 25-75% inhibition of specific binding must be obtained before calculation of IC50.
The test value will be given as IC50 (the concentration (nM) of the test substance which inhibits the specific binding of ^3 H-PRZ by 50%).
as §1, §2

[3] = target: muscarinic receptor in the CNS; settings: read-out: affinity of site labelled by ^3 H-Oxo, cited from earlier work

Row | Structure (SMILES) | ^3 H-Oxo-M IC50 [1] [µg/mL] | IC50 [2] [nM] | IC50 ([2]; rat cortex, 1.0 nM ^3 H-Pirenzepine, 60 min at 20° C., pH 7.4, read-out: ^3 H-Pz IC50) [nM] | Kd ([3]; first of three sites (high affinity)) [nM] | Kd ([3]; second of three sites (medium affinity)) [nM] | Kd ([3]; third of three sites, not determined under the present experimental conditions) [nM]
1 | CN1C2CCC1c1c(sc3nsnc13)C2.O=C(O)C(=O)O (stereo not shown) [Compound 1, 6,8-Ethano-7-methyl-5,6,7,8-tetrahydro-1,2,5-thiadiazolo[3',4':4,5]thieno[3,2-c]pyridine oxalate] | 0.27 | > 1000 |  |  |  | 
2 | C1Cc2sc3nsnc3c2CN1.O=C(O)C(=O)O [Compound 2, 5,6,7,8-Tetrahydro-1,2,5-thiadiazolo[3',4':4,5]thieno[3,2-c]pyridine oxalate] | 0.0064 |  | 284 |  |  | 
3 | C1CC2CN(C1)Cc1c2sc2nsnc12.O=C(O)C(=O)O (stereo not shown) [Compound 3, 5,9-Methano-5,6,7,8,9,10-hexahydro-1,2,5-thiadiazolo[3',4':4,5]thieno[3,2-c]azocine oxalate] | 0.0022 | 26 |  |  |  | 
4 | O=C(O)C(=O)O.c1cc2nsnc2c2c1CCNC2 [Compound 4, 6,7,8,9-Tetrahydro[1,2,5]thiadiazolo[3,4-h]isoquinoline oxalate] | 0.014 | 255 |  |  |  | 
5 | CN1CCC2=C(C1)c1nsnc1SC2 [Compound 5, oxalate] | 0.014 | 80 |  |  |  | 
6 | C[N+](C)(C)CC#CCN1CCCC1=O [^3 H-Oxo, ^3 H-Oxotremorine-M] |  |  |  | 1.8 | 20 | 3000
